# Source: the METLIN SMRT retention time set (Domingo-Almenara et al. 2019)
# Test: gradient 5% acetonitrile 3 min, to 50% in 2 min, to 85% in 15 min, held 3 min, 100 µL/min
# Details: column: Zorbax Extend-C18 2.1 x 50 mm; eluents: water / acetonitrile, 0.1% formic acid
# In short: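 Over 3 months, pure standards in mixtures of ~100 molecules were run by HPLC coupled to a quadrupole time-of-flight mass spectrometer in positive and negative ionization mode. The column was a Zorbax Extend-C18 (2.1 × 50 mm, 1.8 μm) at 100 μL/min, eluted with water and acetonitrile each holding 0.1% formic acid, with 40 μL dead and 900 μL dwell volumes. Retention time was determined from adduct peaks chosen by software and checked manually.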
row,Structure (SMILES),RP-LC retention time [s]
1,O=C(NCc1ccccc1)C1CCN(c2ccc(SCc3ccccc3)nn2)CC1,761
2,CN(C)C(=O)CSc1ncnc2sccc12,627
3,CCN1C(=O)C(CC(=O)NCCOC)Sc2ncccc21 (stereo not given),593
4,Cc1cccc(CNC(=O)c2ccc3ncnc(N4CCCC4)c3c2)c1,647
5,CCC1CCCCN1CCCNC(=O)c1sc2nc3n(c(=O)c2c1C)CCC3 (stereo not given),598
6,COc1ccc(NC(=O)c2cccn2Cc2noc(C)n2)cc1,776
7,Cc1ccc(-c2nc(-c3cccc(-c4ccn[nH]4)c3)no2)cc1F,915
8,COC(=O)c1ccc(NC(=O)c2c(O)c3cccnc3n(-c3ccc(F)cc3)c2=O)cc1,1210
9,CN(C)c1ccc(CCNC(=O)C(=O)NC2CC2)cc1,523
10,CCOc1nc2ccccc2nc1N1CCCC(C(=O)Nc2ccccc2OC)C1 (stereo not given),1250
11,O=C(Cn1c(C(F)(F)F)nc2cc3c(cc21)OCCO3)N1CCOCC1,682
12,CCOC(=O)C1CCN(c2nc3ccccc3n2Cc2cc(C)ccc2C)CC1,858
13,CCc1ccccc1N1C(=O)c2c(C(=O)OC)ncn2CC1(C)C(=O)NCc1ccccc1 (stereo not given),735
14,COc1ccc(C)cc1NC(=O)N1CCCC(Cn2c(C3CC3)nc3cccnc32)C1 (stereo not given),722
15,CCCCN1CCN(C(=O)c2c(C)sc3ccn(CC(C)C)c(=O)c23)CC1,632
16,CN1C(=O)C2CCCCN2c2ccc(C(=O)NCCc3ccco3)cc21 (stereo not given),815
17,COc1ccc(-c2noc(CSc3nccn3-c3ccc(C)cc3)n2)cc1OC,856
18,CCN1C(=O)COc2ccc(-c3noc(COc4ccc(F)cc4)n3)cc21,1030
19,O=C(CSc1ncnc2c1cnn2-c1ccc(Cl)cc1)NCc1ccco1,954
20,Cc1ccc2c(Nc3ccc(C(C)C)cc3)c(C(=O)N3CCCC(C)C3)cnc2n1 (stereo not given),737
21,COc1ccc(-c2cc(=O)n3c4ccccc4n(CC(=O)NC(C)C)c3n2)cc1,853
22,CCn1cnc2c1CN(S(=O)(=O)c1ccc(C#N)cc1)CC2,616
23,CC(C)CCn1nc(-c2nc(-c3cccc(Cl)c3)no2)ccc1=O,1310

row,Structure (SMILES),RP-LC retention time [s]
1,COc1ccc(CNC(=O)C2CN(S(=O)(=O)C3CC3)CC23CCCCC3)cc1 (stereo not given),891
2,Cc1cccc(-n2c(=O)c3sccc3n(Cc3nc(-c4ccccc4)no3)c2=O)c1,1010
3,Cc1nc(-c2ccncc2)nc2c1CCC(=O)N2Cc1cccnc1,553
4,Cc1ccn2cc(C(=O)N3CCN(c4ccccc4F)CC3)nc2c1,662
5,Cc1ccc2c(=O)c3c([nH]c2c1C)CCN(CC(=O)Nc1ccccc1F)C3,612
6,COc1cc(OC)cc(-c2noc(CCn3nc(-c4cccc(Cl)c4)ccc3=O)n2)c1,1040
7,CN(C(=O)C(=O)Nc1ccc2nc3n(c(=O)c2c1)CCCCC3)c1cccc(C(F)(F)F)c1,819
8,CCc1nc(-c2csc(S(=O)(=O)N3CCCC(C(=O)Nc4ccc(C)c(Cl)c4)C3)c2)no1 (stereo not given),1180
9,Cc1cccc(OCC(=O)N2CCN(S(=O)(=O)c3c(C)nn(C(C)C)c3C)CC2)c1,904
10,COc1cccc(N2CCCn3c2nc2c3c(=O)n(Cc3c(F)cccc3Cl)c(=O)n2C)c1,966
11,O=c1c(S(=O)(=O)N2CCCC2)cccn1Cc1ccc(Cl)cc1,876
12,CCOC(=O)CNC(=O)CN(C(=O)N1CCN(C)CC1)S(=O)(=O)c1ccc(C)cc1,556
13,COC(=O)c1cccc(NC(=O)C2CCN(c3cc(N4CCCC4)ncn3)CC2)c1,658
14,CCN1C(=O)c2cc(C(=O)NCc3cccc(C)c3)nn2CC1(C)C(=O)NC1CCCC1 (stereo not given),812
15,CCc1cc(=O)n(CC(=O)NCCc2ccc(Cl)cc2)c(N2CCOCC2)n1,803
16,COCCc1noc(C2CN(C(=O)c3ocnc3C)C2)n1,595
17,Cc1cccn2cc(-c3cccc(S(=O)(=O)N4CCCC4)c3)nc12,637
18,O=C(Cc1cccs1)Nc1cc(F)c2nc(N3CCOCC3)ccc2c1,793
19,O=C(OCc1cc(-c2ccccc2)on1)c1ccc[nH]c1=O,656
20,CCCCN1CCN(C(=O)CN2CCN(Cc3ccc(F)cc3Cl)C2=O)CC1,641
21,CC(Oc1ccc(=O)n(-c2ccc(F)cc2)n1)C(=O)Nc1ccccc1Cl (stereo not given),826
22,CN1CC2(CCN(C(=O)NC3CCCCC3)CC2)CC1C(=O)N1CCOCC1 (stereo not given),595
23,Cc1ccc(S(=O)(=O)N2CCC(C)CC2)cc1-c1nnc(-c2ccccc2)o1,1180

row,Structure (SMILES),RP-LC retention time [s]
1,Cc1cc(F)ccc1NC(=O)C1CCN(S(=O)(=O)c2ccc3[nH]c(=O)ccc3c2)CC1,729
2,COc1ccc(C(C)NC(=O)C2=C3CCCN3c3ccccc3S2(=O)=O)cc1OC (stereo not given),779
3,O=c1n(CCOc2ccc(F)cc2)nc2c(S(=O)(=O)N3CCCCC3)cccn12,894
4,O=C(NC1CC1)c1ccc(N2CCC(NCc3ccc(F)c(F)c3)C2)nc1 (stereo not given),567
5,CCCNC(=O)CC1CCN(C(=O)c2[nH]c(C)c(C(=O)OC)c2C)CC1,657
6,CCCNS(=O)(=O)c1cc(-c2cc(C(F)(F)F)on2)sc1C,1090
7,O=C(Cc1cccs1)NCC(=O)Nc1nc2ccccc2[nH]1,609
8,CCc1nn(CC(=O)N2CCN(c3ccccn3)CC2)c(=O)c2cc3sccc3n12,612
9,COc1ccccc1CNc1ccc(-c2nc(-c3ccc(F)cc3)no2)cn1,1220
10,O=C(N[C@H]1C[C@@H]2C[C@H]1CN2S(=O)(=O)c1ccc2c(c1)CCC2)c1ccccc1,933
11,Cc1cc(NC(=O)Nc2ccc3c(ccn3C)c2)sn1,736
12,Cc1ccc(OC(=O)c2cc3c(C)nn(-c4ccccc4)c3s2)cc1C,979
13,CCc1ccc(-c2nn(C)c(=O)c3c2CCCC3)cc1S(=O)(=O)N1CCC(C(N)=O)CC1,736
14,COc1cccc(NC(=O)Cn2nc3c(Oc4cc(C)cc(C)c4)nccn3c2=O)c1,904
15,O=C(NCCCc1ccccc1)c1cccc2c1CCN2C(=O)C1CC1,902
16,Cc1csc(NC(=O)c2cn(Cc3cccc(F)c3)nc2OCc2cccc(F)c2)n1,1080
17,Cc1ccc(C(=O)N2CCC3(CC2)N=C(c2ccc(C)cc2)NO3)cc1,858
18,Cc1c(C(=O)NC(C)C)cnn1-c1cc(-c2nc(C3CC3)no2)ccn1,865
19,COCCn1cc2c3c(cccc31)CN(C(=O)Nc1ccc(OC)c(F)c1)CC2,891
20,O=C(NCCc1c[nH]c2ccccc12)c1nn(-c2ccc(Cl)cc2)nc1CO,1020
21,Cc1ncnc2c1CCC(=O)N2CC1CCCCC1,848
22,CSc1ccc(CNC(=O)C2CCCN(c3cnc4nc(C)c(C)nc4c3)C2)cc1 (stereo not given),755
23,CCN1CCCC1CNC(=O)c1nnc(-c2oc3c(C)cccc3c2C)o1 (stereo not given),725

row,Structure (SMILES),RP-LC retention time [s]
1,CC(C)Oc1ccc(CNC(=O)C2CCN(c3nnc4ccccn34)CC2)cc1,685
2,Cc1cccn2cc(C(=O)NCc3cccc(F)c3)nc12,645
3,Cc1ccc(NC(=O)c2cccc([N+](=O)[O-])c2)c(C)c1,830
4,CCOc1cc(S(=O)(=O)Nc2cccc(C)n2)c(C)cc1C,779
5,Cc1cc(C)c(S(=O)(=O)NCC2CN(C)CC23CCCCC3)c(C)c1 (stereo not given),590
6,Cc1ccccc1NC(=O)CN1C(=O)CCc2cc(Br)ccc21,884
7,CCN(CC)CCCNC(=O)C1CCCN(c2nnc(C)c3c(C)n(-c4ccc(Cl)cc4)nc23)C1 (stereo not given),598
8,CN(C)C(=O)c1ccc2c(c1)N(CC(=O)NC1CCCCCC1)C(=O)C1CCCCN21 (stereo not given),801
9,COc1ccccc1NS(=O)(=O)c1cc(-c2cc(C(F)(F)F)on2)sc1C,1110
10,CC1(CNC(=O)COc2ccc(F)cc2)CCOCC1,750
11,CN(C)C(=O)c1cc2c(s1)CCC(C(=O)NCCc1cccnc1)C2 (stereo not given),543
12,COc1cc(OC)c(NC(=O)Nc2c(-c3cccc(C)c3)nc3ccccn23)cc1Cl,721
13,NC(N)=NCc1cccc(I)c1,442
14,COc1ccc(Cl)cc1NC(=O)Cn1ccc2c(=O)n(C)c(=O)n(C)c21,722
15,Cc1ccc(CNC(=O)C2CCN(c3cncnc3N3CCOCC3)CC2)cc1,631
16,Nc1ccccc1-n1nc2ccc3ccccc3c2n1,1220
17,Cn1nc(C(=O)N2CCC3(CC2)N=C(c2ccccc2)NO3)c2ccccc21,809
18,CCS(=O)(=O)N1CC(=O)N(c2ccc(C)c(Cl)c2)C(C)(C(=O)NC2CCCCCC2)C1 (stereo not given),1010
19,CCn1cc(-c2ccc(F)cc2)cc1C(=O)N1CCOCC1,869
20,O=[N+]([O-])c1cccc(S(=O)(=O)Nc2ccc(O)c(-c3c(O)ccc4ccccc34)c2)c1,801
21,O=C(Cn1c(-c2cnccn2)nc2ccccc21)N1CCN(C(=O)c2ccco2)CC1,615
